In publication PMC7730235, “Discovery of a Novel Class of Covalent Dual Inhibitors Targeting the Protein Kinases BMX and BTK” (International Journal of Molecular Sciences, 2020):

Legend:
BMX = target: T1, BMX (Homo sapiens, UniProt P51813); test: Radiometric kinase assay (Reaction Biology HotSpot); type: biochemical; details: radiometric HotSpot, five-dose singlicate, [ATP] = 10 μM
T1 construct: purchased Reaction Biology Corporation
T1 sequence (P51813 1-675): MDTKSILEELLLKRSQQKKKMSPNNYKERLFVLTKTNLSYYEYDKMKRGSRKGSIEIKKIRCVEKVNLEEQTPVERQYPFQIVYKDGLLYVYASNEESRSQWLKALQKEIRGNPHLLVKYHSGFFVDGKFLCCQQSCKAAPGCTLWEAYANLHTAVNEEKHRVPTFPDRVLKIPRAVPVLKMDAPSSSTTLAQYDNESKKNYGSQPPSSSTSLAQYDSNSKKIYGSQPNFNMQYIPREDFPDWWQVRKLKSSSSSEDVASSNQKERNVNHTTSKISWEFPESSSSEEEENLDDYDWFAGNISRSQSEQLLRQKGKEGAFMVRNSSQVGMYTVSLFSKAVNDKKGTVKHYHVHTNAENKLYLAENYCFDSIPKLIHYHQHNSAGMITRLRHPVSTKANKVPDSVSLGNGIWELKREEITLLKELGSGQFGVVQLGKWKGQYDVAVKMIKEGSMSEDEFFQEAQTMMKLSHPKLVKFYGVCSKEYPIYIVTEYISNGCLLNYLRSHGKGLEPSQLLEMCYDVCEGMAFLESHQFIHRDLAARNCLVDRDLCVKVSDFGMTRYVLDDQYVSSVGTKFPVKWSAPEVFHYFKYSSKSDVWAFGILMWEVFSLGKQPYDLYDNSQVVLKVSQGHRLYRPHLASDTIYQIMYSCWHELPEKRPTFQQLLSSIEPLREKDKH
Description: (§1) If not mentioned differently, in vitro profiling of compounds was performed at Reaction Biology Corporation using the HotSpot™ assay platform.

TXK = target: T2, TXK (Homo sapiens, UniProt P42681); test: as above; type: biochemical; details: radiometric HotSpot, five-dose singlicate, [ATP] = 10 μM
T2 construct: purchased Reaction Biology Corporation
T2 sequence (P42681 1-527): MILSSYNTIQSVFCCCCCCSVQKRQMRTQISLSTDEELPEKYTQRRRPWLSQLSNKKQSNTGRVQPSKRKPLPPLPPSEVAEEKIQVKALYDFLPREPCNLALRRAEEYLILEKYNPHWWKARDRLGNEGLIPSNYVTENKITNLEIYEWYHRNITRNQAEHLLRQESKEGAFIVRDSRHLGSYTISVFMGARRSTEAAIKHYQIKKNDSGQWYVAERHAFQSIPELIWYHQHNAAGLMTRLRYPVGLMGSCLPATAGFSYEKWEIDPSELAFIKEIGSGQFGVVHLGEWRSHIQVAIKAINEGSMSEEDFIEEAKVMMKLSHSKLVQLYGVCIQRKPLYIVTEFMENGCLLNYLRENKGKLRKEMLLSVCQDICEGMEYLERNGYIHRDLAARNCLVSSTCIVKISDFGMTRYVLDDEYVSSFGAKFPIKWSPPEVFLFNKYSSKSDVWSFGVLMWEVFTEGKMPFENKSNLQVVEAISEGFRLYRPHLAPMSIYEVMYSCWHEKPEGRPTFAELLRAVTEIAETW
Description: as §1

[1] = target: T3, Full length BTK (C-terminal NanoLuc fusion) (Homo sapiens, UniProt Q06187); test: Cellular NanoBRET target engagement assay in HEK293T cells; type: cell-based; details: 0.5 µM Tracer K5, 2 h incubation
T3 construct: Full length BMX and BTK was cloned into pFC32K; expressed in transfected cells; host or cells: HEK293T
T3 sequence (Q06187 whole entry, the tested form may be a part): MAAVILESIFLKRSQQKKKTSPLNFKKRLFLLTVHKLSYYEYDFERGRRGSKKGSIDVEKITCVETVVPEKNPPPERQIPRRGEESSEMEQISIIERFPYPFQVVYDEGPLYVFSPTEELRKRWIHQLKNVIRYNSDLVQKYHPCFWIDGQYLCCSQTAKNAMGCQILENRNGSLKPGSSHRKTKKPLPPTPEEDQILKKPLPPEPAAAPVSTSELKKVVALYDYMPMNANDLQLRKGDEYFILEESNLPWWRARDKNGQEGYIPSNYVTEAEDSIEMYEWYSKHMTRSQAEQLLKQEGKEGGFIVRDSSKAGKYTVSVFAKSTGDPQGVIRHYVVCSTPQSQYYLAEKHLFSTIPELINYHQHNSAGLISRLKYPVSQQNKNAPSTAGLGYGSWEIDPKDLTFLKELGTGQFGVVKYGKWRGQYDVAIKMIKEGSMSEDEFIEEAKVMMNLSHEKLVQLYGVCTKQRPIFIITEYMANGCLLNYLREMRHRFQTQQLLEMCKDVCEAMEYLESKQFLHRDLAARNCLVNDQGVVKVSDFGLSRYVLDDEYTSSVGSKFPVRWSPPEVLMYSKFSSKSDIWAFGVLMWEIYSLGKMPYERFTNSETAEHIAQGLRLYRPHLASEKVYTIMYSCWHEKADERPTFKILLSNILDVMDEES
Description: (§2) Full length BMX and BTK was cloned into pFC32K (Promega, Madison, WI, USA) for expression of a C-terminal NanoLuc fusion. The plasmids were transfected into HEK293T cells cultured in DMEM (Gibco, Waltham, MA, USA) supplemented with 10% fetal bovine serum (Gibco, Waltham, MA, USA) and Penicillin/Streptamycin (Gibco, Waltham, MA, USA). NanoBRET assays were performed using the protocol published previously. Briefly, after transfection and 20 h incubation cells were harvested and subsequently resuspended in OptiMEM (Gibco, Waltham, MA, USA). Cells were aliquoted onto […] (Greiner, Kremsmünster, Austria), and inhibitors as well as 0.5 µM Tracer K4 (Promega) for BMX or 0.5 µM Tracer K5 (Promega, Madison, WI, USA) for BTK were added using an ECHO acoustic dispenser. The plates were incubated at 37 °C with 5% CO2 for 2 h prior to the addition of both NanoBRET NanoGlo substrate (Promega, Madison, WI, USA) and extracellular NanoLuc inhibitor. BRET luminescence (450 nm for donor emission and 610 nm for BRET signal) was measured using PHERAstar FSX plate reader (BMG Labtech, Ortenberg, Germany). Milli-BRET units (mBU) were calculated as a ratio between BRET signal and the overall measured luminescence. A dose–response fitting was applied and IC50 values were calculated using the Prism software. […] Experiments were performed as tripicates and repeated at least three times.

[2] = target: T4, Full length BMX (C-terminal NanoLuc fusion) (Homo sapiens, UniProt P51813); test: as above; type: cell-based; details: 0.5 µM Tracer K4, 2 h incubation
T4 construct: Full length BMX and BTK was cloned into pFC32K; expressed in transfected cells; host or cells: HEK293T
T4 sequence (P51813 1-675): T1 sequence (P51813 1-675)
Description: as §2

kinase domain of BMX [3] = target: T5, kinase domain of BMX (Homo sapiens, UniProt P51813); test: Mass spectrometric investigation of covalent binding to BMX (ESI-TOF); details: 4 °C; for covalent labeling of BMX (in words): 1.5-fold molar excess, complete labeling refers to 30 min
T5 construct: The kinase domains of JAK3 and BMX at 2 μM
Description: The kinase domain of BMX was diluted to 0.05 mM with buffer containing 20 mM Tris pH 8.0, 200 mM NaCl, 0.5 mM TCEP (pH 7.0) and was subsequently mixed with 0.075 mM inhibitors (ratio of protein to inhibitor of 1:1.5). The mixture was incubated at 4°C. The samples were taken at different time points, the reaction stopped by diluting the sample with a 200-fold excess of 1% formic acid. The denatured protein and the adducts were assessed using electrospray time-of-flight (ESI-TOF) mass spectrometry.

JAK3 = target: T6, JAK3 (Homo sapiens, UniProt P52333); test: Radiometric kinase assay (Reaction Biology HotSpot); type: biochemical; details: radiometric HotSpot, five-dose singlicate, [ATP] = 10 μM
T6 construct: purchased Reaction Biology Corporation
T6 sequence (P52333 1-1124): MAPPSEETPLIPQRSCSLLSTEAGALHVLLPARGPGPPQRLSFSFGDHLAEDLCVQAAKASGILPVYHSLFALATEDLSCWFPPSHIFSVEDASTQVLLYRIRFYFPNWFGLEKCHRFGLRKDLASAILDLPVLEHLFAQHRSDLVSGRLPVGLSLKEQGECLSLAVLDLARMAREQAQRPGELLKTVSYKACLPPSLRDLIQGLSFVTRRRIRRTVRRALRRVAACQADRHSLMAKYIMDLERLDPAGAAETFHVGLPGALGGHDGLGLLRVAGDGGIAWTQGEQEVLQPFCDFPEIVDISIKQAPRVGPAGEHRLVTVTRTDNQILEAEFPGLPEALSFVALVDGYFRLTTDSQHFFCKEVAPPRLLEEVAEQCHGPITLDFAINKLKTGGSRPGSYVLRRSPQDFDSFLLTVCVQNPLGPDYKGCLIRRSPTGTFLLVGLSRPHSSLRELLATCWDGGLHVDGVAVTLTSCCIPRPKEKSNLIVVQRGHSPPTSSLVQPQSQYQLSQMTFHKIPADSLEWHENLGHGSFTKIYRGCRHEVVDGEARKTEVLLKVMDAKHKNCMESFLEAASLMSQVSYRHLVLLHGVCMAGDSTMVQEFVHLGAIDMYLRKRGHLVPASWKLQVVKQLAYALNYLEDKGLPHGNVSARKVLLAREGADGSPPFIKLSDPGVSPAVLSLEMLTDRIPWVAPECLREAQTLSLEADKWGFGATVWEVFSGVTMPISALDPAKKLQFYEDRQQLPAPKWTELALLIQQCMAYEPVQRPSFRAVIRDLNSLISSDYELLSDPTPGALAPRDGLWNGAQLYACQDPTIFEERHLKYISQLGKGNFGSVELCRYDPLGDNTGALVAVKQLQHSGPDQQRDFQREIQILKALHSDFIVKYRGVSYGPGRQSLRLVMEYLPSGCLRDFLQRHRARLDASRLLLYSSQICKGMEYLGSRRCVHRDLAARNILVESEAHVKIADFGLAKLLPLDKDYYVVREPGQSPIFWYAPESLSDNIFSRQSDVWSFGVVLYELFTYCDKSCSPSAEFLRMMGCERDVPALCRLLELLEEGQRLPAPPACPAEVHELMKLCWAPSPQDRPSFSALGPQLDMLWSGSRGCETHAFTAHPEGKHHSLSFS
Description: as §1

kinase domain of BMX [4] = target: T5, kinase domain of BMX; test: Thermal shift (ΔTm) assay; type: binding; details: 2 μM kinase domain, 10 μM inhibitor; mean ± SD of at least three measurements
Description: (§3) The kinase domains of JAK3 and BMX at 2 μM were mixed with the inhibitors at 10 μM, and subsequently SyPRO orange dye (Invitrogen Carlsbad, CA, USA) was added. The thermal shift assay and data evaluation were performed as described previously using a Real-Time PCR Mx3005p machine (Stratagene, La Jolla, CA, USA).

kinase domain of JAK3 = target: T7, kinase domain of JAK3 (Homo sapiens, UniProt P52333); test: Thermal shift (ΔTm) assay; type: binding; details: 2 μM kinase domain, 10 μM inhibitor; mean ± SD of at least three measurements
T7 construct: The kinase domains of JAK3 and BMX at 2 μM; made in house
Description: as §3

[5] = 1.5-fold molar excess of inhibitor, 30 min
[6] = 1.5-fold molar excess of inhibitor, 60 min
[7] = 1.5-fold molar excess of inhibitor, 120 min
[8] = 1.5-fold molar excess of inhibitor, 240 min

IC50 (BMX) [nM] | IC50 (TXK) [nM] | IC50 [1] [nM] | IC50 [2] [nM] | native (unmodified) BMX fraction, 30 min (kinase domain of BMX [3]; [5]) [%] | native (unmodified) BMX fraction, 60 min (kinase domain of BMX [3]; [6]) [%] | native (unmodified) BMX fraction, 120 min (kinase domain of BMX [3]; [7]) [%] | native (unmodified) BMX fraction, 240 min (kinase domain of BMX [3]; [8]) [%] | covalent labeling of BMX (in words) (kinase domain of BMX [3]) | IC50 (JAK3) [nM] | ΔTm at 10 µM (kinase domain of BMX [4]) [°C] | ΔTm at 10 µM (kinase domain of JAK3) [°C] | BMX covalent adduct fraction, 30 min (kinase domain of BMX [3]; [5]) [%] | BMX covalent adduct fraction, 60 min (kinase domain of BMX [3]; [6]) [%] | BMX covalent adduct fraction, 120 min (kinase domain of BMX [3]; [7]) [%] | BMX covalent adduct fraction, 240 min (kinase domain of BMX [3]; [8]) [%] | Structure (SMILES)
> 10000 | > 10000 | 3710 ± 1200 | > 10000 | 100 | 100 | 100 | 100 | no modification was detectable |  |  |  |  |  |  |  | CCC(=O)Nc1cccc(-c2c[nH]c3ncc(C(=O)NC4CCCC4)cc23)c1 [Compound 11b, N-cyclopentyl-3-(3-propionamidophenyl)-1H-pyrrolo[2,3-b]pyridine-5-carboxamide]
6 |  | 13 ± 2 | 3 ± 1 |  |  | 1 |  | complete labeling | > 10000 | 11.88 ± 0.07 | 11.9 ± 0.23 | 100 | 100 | 99 | 100 | C=CC(=O)Nc1cccc(-c2c[nH]c3ncc(NC(=O)CC4CCCC4)cc23)c1 [Compound 12g, N-(3-(5-(2-cyclopentylacetamido)-1H-pyrrolo[2,3-b]pyridin-3-yl)phenyl)acrylamide]
